Entries after “also recorded” stand apart in the source; their conditions may differ. Counter-ions that a name gives are not always drawn.
Legend:
SH-SY5Y cells [1] = experiment: Transferrin (Trf) uptake under pharmacological endocytosis inhibitors (control for clathrin-mediated endocytosis); assay type: cell-based, human; conditions: for effect of inhibitor on Trf uptake: 10 µM cytochalasin A, 25 µg/ml cytochalasin D, 10 µM IPA-3 or 25 nM wortmannin, Trf 5 µg/ml 5 min
Description: (§1) Flow cytometry was used to quantify cellular uptake. The samples were washed in serum free medium (1x for experiments including only Aβ and 3x for experiments with Trf) prior to incubation with Aβ peptides and/or other reagents in serum free medium supplemented with 30 mM HEPES and 2% B-27. For experiments including Trf B-27 was omitted, as outlined above. Prior to analysis, the cells were washed 1x (for experiments including only Aβ) or 3x (for experiments including Aβ and dextran 10 kDa or Trf) in serum free medium, detached by trypsin-EDTA for 10 min followed by addition of FBS-supplemented cell culture medium to inhibit further proteolytic degradation. All samples were kept on ice until they were analysed on a Guava EasyCyte 8HT (Millipore, Darmstadt, Germany) that automatically retrieves samples from a 96-well plate. In order to exclude effects due to difference in delay time we used mixed order of analysis, loading only a few samples at a time with the remaining samples kept on ice. The cell counting gate was determined using propidium iodide (0.5 µM, not washed away prior to analysis) and calcein-AM (10 nM, 15 min staining) to distinguish live and dead cells, and for each sample 5,000 cells from within the live gate were counted and analysed. HF488, AlexaFluor488, EGFP and calcein-AM were excited by a 488 nm laser and their fluorescence was detected through a 525/30 nm filter. Propidium iodide and mRFP were excited by the 488 nm laser but detected through a 692/46 nm filter. HF647 and AlexaFluor647 were excited with a 635 nm laser and detected through a 661/19 nm filter. Compensation was performed to adjust for bleed through in experiments including mRFP. Mean cellular uptake was estimated as the average fluorescence intensity of all cells gated within the live region and all individual experiments were performed with three technical replicates (n = 3) unless else is stated. The average fluorescence intensity was baseline corrected by subtracting the signal for unstained cells.
Endocytic mechanisms were also perturbed by treatment of cells with pharmacological inhibitors. Stock solutions of cytochalasin A, cytochalasin D, dynasore, wortmannin and IPA-3 were prepared in DMSO and diluted in serum-free cell culture media supplemented with 30 mM HEPES on the day of the experiment. The final DMSO concentration added to the cells was kept <0.1% and matched for the control. Prior to addition of Aβ peptide the cells were always washed in serum-free medium followed by pre-incubation for 30 min with either of the inhibitors diluted in serum-free medium with the addition of 30 mM HEPES. 1 µM Aβ was thereafter added and the cells were incubated for a total of 1 h, in presence of the respective inhibitors. The cells were centrifuged 1000 * g for 5 min at 4 °C, washed 3x with ice-cold serum-free medium, followed by detachment and immediate flow cytometry analysis, as detailed above. […] However, under exposure conditions where at least 75% if the inhibitor-treated cells were found in the live gate (see Supplementary Fig. S5) we observed reductions in Aβ uptake. Only the live cells were included in the analysis. Trf was used as a positive control for clathrin-mediated endocytosis. Due to the rapid uptake and recycling of internalized Trf we adopted an optimized protocol with sufficiently short Trf incubation times. First, to remove the quantities of membrane-bound Trf that originate from the serum component of the complete culture medium the cells were washed 3x in serum-free medium. The cells were then subjected to the inhibitors as described above and thereafter exposed to a 5 min pulse of 5 µg/ml Trf. To remove externally bound fluorescently labelled Trf the cells were thereafter washed (3x/2 min) in ice-cold acidic buffer (0.1 M Glycine-HCl buffer pH 2.5 with 150 mM NaCl)[35] whilst kept on ice. […]

SH-SY5Y cells [2] = experiment: Cell viability by flow cytometry FSC/SSC live/dead gating; assay type: cell-based; conditions: for fraction of inhibitor-treated cells in the live gate: 90 min exposure at the concentrations used (10 µM cytochalasin A, 25 µg/ml cytochalasin D, 10 µM IPA-3, 25 nM wortmannin, 5 µg/ml CPZ, 80 µM dynasore), FSC/SSC gating
Description: Flow cytometry was used to quantify cellular uptake. […] For experiments including Trf B-27 was omitted, as outlined above. […] All samples were kept on ice until they were analysed on a Guava EasyCyte 8HT (Millipore, Darmstadt, Germany) that automatically retrieves samples from a 96-well plate. In order to exclude effects due to difference in delay time we used mixed order of analysis, loading only a few samples at a time with the remaining samples kept on ice. The cell counting gate was determined using propidium iodide (0.5 µM, not washed away prior to analysis) and calcein-AM (10 nM, 15 min staining) to distinguish live and dead cells, and for each sample 5,000 cells from within the live gate were counted and analysed. […] Compensation was performed to adjust for bleed through in experiments including mRFP. Mean cellular uptake was estimated as the average fluorescence intensity of all cells gated within the live region and all individual experiments were performed with three technical replicates (n = 3) unless else is stated. The average fluorescence intensity was baseline corrected by subtracting the signal for unstained cells.
(1 picture or pasted object on this page, not shown here)

[3] = test system: SH-SY5Y cells transfected with AP180-C; experiment: Uptake in cells overexpressing AP180-C; assay type: cell-based, human; conditions: SH-SY5Y 24 h post transfection; HF488-labelled Aβ 1 µM 1 h or AF647-Trf 5 µg/ml 5 min; low and high mRFP gates; N = 2, n = 2–4
Description: as §1, with “cells. […]” for “cells.”

[4] = test system: SH-SY5Y cells transfected with dyn2 K44A; experiment: Uptake in cells transfected with dominant negative dynamin2 K44A; assay type: cell-based, human; conditions: SH-SY5Y 24 h post transfection; HF647-labelled Aβ 1 µM 1 h or AF647-Trf 5 µg/ml 5 min; gated low/medium/high EGFP; N = 2, n = 3–5
Description: as §1, with “In order to exclude effects due to difference in delay time we used mixed order of analysis, loading only a few samples at a time with the remaining samples kept on ice.” left out, “HF647 and AlexaFluor647 were excited with a 635 nm laser and detected through a 661/19 nm filter. Compensation was performed to adjust for bleed through in experiments including mRFP. Mean cellular uptake was estimated as the average fluorescence intensity of all cells gated within the live region and all individual experiments were performed with three technical replicates (n = 3) unless else is stated. The average fluorescence intensity was baseline corrected by subtracting the signal for unstained cells.” left out

[5] = Stability of CPZ in aqueous solution; assay type: physicochemical; conditions: aqueous solution / cell culture medium

Compound | effect of inhibitor on Trf uptake (SH-SY5Y cells [1]; n = 3) | fraction of inhibitor-treated cells in the live gate (SH-SY5Y cells [2]) | further results
O=C(N/N=C/c1ccc(O)c(O)c1)c1cc2ccccc2cc1O [dynasore] | – | – | inhibition at 80 µM (SH-SY5Y cells [1]; Homo sapiens, 5 min, 80 µM dynasore, 5 µg/ml AF647-Trf 5 min pulse, range over 4 independent experiments): 30 to 65%
C=C1[C@@H](C)[C@H]2[C@H](Cc3ccccc3)NC(=O)[C@]23[C@H](OC(C)=O)/C=C/[C@@](C)(O)C(=O)[C@@H](C)C/C=C/[C@H]3[C@@H]1O [cytochalasin D] | reduced the uptake of Trf | > 85% | –
CCN(c1nc(N)c(C(=O)NC(=N)N)nc1Cl)C(C)C [EIPA] | – | – | specificity as macropinocytosis inhibitor (SH-SY5Y cells [1]; 25–200 µM): unspecific in SH-SY5Y cells regardless of the concentration used
Transferrin [Trf] | – | – | uptake in AP180-C transfected cells compared to non-transfected cells [3]: systematically decreased with the degree of AP180-C overexpression; uptake in dyn2 K44A transfected cells relative to non-transfected cells [4]: inhibited in proportion to the degree of dyn2 K44A expression
COC[C@H]1OC(=O)c2coc3c2[C@@]1(C)C1=C(C3=O)[C@@H]2CCC(=O)[C@@]2(C)C[C@H]1OC(C)=O [wortmannin] | identical to that in the control | at least 90% | –
CN(C)CCCN1c2ccccc2Sc2ccc(Cl)cc21 [CPZ, chlorpromazine hydrochloride] | – | – | inhibition at 5 µg/mL (SH-SY5Y cells [1]; Homo sapiens, 5 µg/ml CPZ, Trf 5 µg/ml 5 min pulse at end of 1 h Aβ incubation, n = 3): ~30%; stability in solution [5]: rapidly degraded in aqueous solutions; also recorded: rapid degradation in solution
Oc1ccc2ccccc2c1SSc1c(O)ccc2ccccc12 [IPA-3, 1,1′-Disulfanediyldinaphthalen-2-ol] | identical to that in the control | at least 90% | –
methyl-β-cyclodextrin | – | – | cytotoxicity during cholesterol depletion (SH-SY5Y cells [2]): high levels of cytotoxicity
C=C1[C@@H](C)[C@H]2[C@H](Cc3ccccc3)NC(=O)[C@]23OC(=O)/C=C/C(=O)CCC[C@@H](C)C/C=C/[C@H]3[C@@H]1O [cytochalasin A] | reduced the uptake of Trf | > 85% | –

— paper PMC5435687 (Scientific Reports, 2017)
